{"source": "patent CN104630230A", "about": "“一组特异识别大田软海绵酸的核酸适配体” (priority 2015, dated 2015)", "assay_in_all_cases": "Affinity analysis (GO separation, FAM fluorescence, saturation binding)", "key": {"[1]": {"biological_target": "5'-FAM-labelled single-stranded DNA aptamer OA27-1 (truncated OA-27, random region 40 nt) (核酸适配体 OA27-1)", "details": "OA27-1, saturation binding curve (Fig. 4B)"}, "[2]": {"biological_target": "5'-FAM-labelled ssDNA OA-22 (80 nt)", "details": "1 μM OA, 5-200 nM ssDNA, 2 h in the dark, ex 490 nm / em 520 nm"}, "[3]": {"biological_target": "5'-FAM-labelled single-stranded DNA aptamer OA-27 (80 nt) (核酸适配体 OA-27)"}, "[4]": {"biological_target": "5'-FAM-labelled ssDNA OA-17 (80 nt)", "details": "1 μM OA, 5-200 nM ssDNA, 2 h in the dark, ex 490 nm / em 520 nm"}, "[5]": {"biological_target": "5'-FAM-labelled ssDNA OA-08 (80 nt)", "details": "1 μM OA, 5-200 nM ssDNA, 2 h in the dark, ex 490 nm / em 520 nm"}}, "note": "Like-named read-outs stand apart in the source and are kept apart here.", "data": [{"molecule": "C=C1[C@@H](O)[C@@H]2O[C@]3(CC[C@H](/C=C/[C@@H](C)[C@@H]4CC(C)=C[C@@]5(O[C@H](C[C@@](C)(O)C(=O)O)CC[C@H]5O)O4)O3)CC[C@H]2O[C@@H]1[C@@H](O)C[C@H](C)[C@H]1O[C@@]2(CCCCO2)CC[C@H]1C", "note": "[OA, Okadaic acid]", "values": [{"measurement": "Kd", "setting": "[1]", "value": 0.039, "unit": "µM"}, {"measurement": "Kd", "setting": "[2]", "value": "< 0.1", "unit": "µM"}, {"measurement": "Kd", "setting": "[3]; 1 μM OA, 5-200 nM ssDNA, 2 h in the dark, GO separation, ex 490 nm / em 520 nm, read-out: Kd", "value": "< 0.1", "unit": "µM"}, {"measurement": "Kd", "setting": "[3]; in words, OA-27 compared with the other ssDNA sequences of the 8 tested (Fig. 4A)", "value": "其Kd值最小"}, {"measurement": "Kd", "setting": "[4]", "value": "< 0.1", "unit": "µM"}, {"measurement": "Kd", "setting": "[5]", "value": "< 0.1", "unit": "µM"}]}]}
